Data taken from PubChem BioAssay AID1259407 (Chemical Carcinogenesis Research Information System (CCRIS), 2018).
Active and inactive are the calls of the source. The rule behind the calls is not given here.

Tested on: CCRIS mutagenicity, Ames/micronucleus/aberration tests
Assay: CCRIS mutagenicity studies
[1] = Test System: AMES SALMONELLA TYPHIMURIUM, Strain/Indicator: TA98, Metabolic Activation: NONE, Method: STANDARD PLATE
[2] = Test System: AMES SALMONELLA TYPHIMURIUM, Strain/Indicator: TA98, Metabolic Activation: RAT, LIVER, S-9, AROCLOR 1254, Method: STANDARD PLATE
[3] = Test System: AMES SALMONELLA TYPHIMURIUM, Strain/Indicator: TA100, Metabolic Activation: NONE, Method: STANDARD PLATE
[4] = Test System: AMES SALMONELLA TYPHIMURIUM, Strain/Indicator: TA100, Metabolic Activation: RAT, LIVER, S-9, AROCLOR 1254, Method: STANDARD PLATE
[5] = Test System: AMES SALMONELLA TYPHIMURIUM, Strain/Indicator: TA1535, Metabolic Activation: NONE, Method: STANDARD PLATE
[6] = Test System: AMES SALMONELLA TYPHIMURIUM, Strain/Indicator: TA100, Metabolic Activation: NONE, Method: PREINCUBATION
[7] = Test System: AMES SALMONELLA TYPHIMURIUM, Strain/Indicator: TA98, Metabolic Activation: NONE, Method: PREINCUBATION

SMILES: Nc1ccc2c(c1)C(=O)/C(=N/Nc1ccc(-c3ccc(N/N=C4\C=CC(=O)C(C(=O)O)=C4)cc3)cc1)C(S(=O)(=O)O)=C2
- mutagenic call (Test System: AMES SALMONELLA TYPHIMURIUM, Strain/Indicator: TA98, Metabolic Activation: HAMSTER, LIVER, S-9, Method: PREINCUBATION (PRIVAL METHOD)): active; positive

SMILES: COC(=O)C(C)(C)Oc1ccc(-c2ccc(Cl)cc2)cc1
- mutagenic call [1]: inactive; negative
- mutagenic call [2]: inactive; negative
- mutagenic call (Test System: AMES SALMONELLA TYPHIMURIUM, Strain/Indicator: TA98, Metabolic Activation: RAT, LIVER, S-9, PHENOBARBITONE AND BETA-NAPHTHOFLAVONE, Method: PREINCUBATION): inactive; negative
- mutagenic call [3]: inactive; negative
- mutagenic call [4]: inactive; negative
- mutagenic call (Test System: AMES SALMONELLA TYPHIMURIUM, Strain/Indicator: TA100, Metabolic Activation: RAT, LIVER, S-9, PHENOBARBITONE AND BETA-NAPHTHOFLAVONE, Method: PREINCUBATION): inactive; negative
- mutagenic call [5]: inactive; negative
- mutagenic call (Test System: AMES SALMONELLA TYPHIMURIUM, Strain/Indicator: TA1535, Metabolic Activation: RAT, LIVER, S-9, AROCLOR 1254, Method: STANDARD PLATE): inactive; negative
- mutagenic call (Test System: AMES SALMONELLA TYPHIMURIUM, Strain/Indicator: TA1537, Metabolic Activation: NONE, Method: STANDARD PLATE): inactive; negative
- mutagenic call (Test System: AMES SALMONELLA TYPHIMURIUM, Strain/Indicator: TA1537, Metabolic Activation: RAT, LIVER, S-9, AROCLOR 1254, Method: STANDARD PLATE): inactive; negative
- mutagenic call (Test System: AMES SALMONELLA TYPHIMURIUM, Strain/Indicator: TA1538, Metabolic Activation: NONE, Method: STANDARD PLATE): inactive; negative
- mutagenic call (Test System: AMES SALMONELLA TYPHIMURIUM, Strain/Indicator: TA1538, Metabolic Activation: RAT, LIVER, S-9, AROCLOR 1254, Method: STANDARD PLATE): inactive; negative
- mutagenic call (Test System: E. COLI, Strain/Indicator: WP2 (PKM101), Metabolic Activation: NONE, Method: STANDARD PLATE): inactive; negative
- mutagenic call (Test System: E. COLI, Strain/Indicator: WP2 (PKM101), Metabolic Activation: RAT, LIVER, S-9, AROCLOR 1254, Method: STANDARD PLATE): inactive; negative
- mutagenic call (Test System: E. COLI, Strain/Indicator: WP2 (PKM101), Metabolic Activation: RAT, LIVER, S-9, PHENOBARBITONE AND BETA-NAPHTHOFLAVONE, Method: PREINCUBATION): inactive; negative
- mutagenic call (Test System: E. COLI, Strain/Indicator: WP2 UVRA (PKM101), Metabolic Activation: NONE, Method: STANDARD PLATE): inactive; negative
- mutagenic call (Test System: E. COLI, Strain/Indicator: WP2 UVRA (PKM101), Metabolic Activation: RAT, LIVER, S-9, AROCLOR 1254, Method: STANDARD PLATE): inactive; negative
- mutagenic call (Test System: UDS RAT HEPATOCYTES, Metabolic Activation: NONE, Method: AUTORADIOGRAPHY): inactive; negative
- mutagenic call (Test System: UDS RAT HEPATOCYTES, Strain/Indicator: BROMODEOXYURIDINE INCORP, Metabolic Activation: NONE): active; positive

SMILES: CC(=O)N(O)c1ccc(C)cc1
- mutagenic call [1]: inactive; negative
- mutagenic call [2]: inactive; negative
- mutagenic call [3]: inactive; negative
- mutagenic call [4]: inactive; negative

SMILES: C=CCNc1ccccc1.C=CCNc1ccccc1.C=CCNc1ccccc1.[Cl-].[Cl-].[Rh].[Rh]
- mutagenic call (Test System: AMES SALMONELLA TYPHIMURIUM, Strain/Indicator: TA92, Metabolic Activation: NONE, Method: STANDARD PLATE): inactive; negative

SMILES: CCC(C)[N+](=O)[O-] (configuration not stated)
- mutagenic call [6]: inactive; negative
- mutagenic call (Test System: AMES SALMONELLA TYPHIMURIUM, Strain/Indicator: TA100, Metabolic Activation: RAT, LIVER, S-9, AROCLOR, Method: PREINCUBATION): inactive; negative
- mutagenic call (Test System: AMES SALMONELLA TYPHIMURIUM, Strain/Indicator: TA102, Metabolic Activation: NONE, Method: PREINCUBATION): inactive; negative
- mutagenic call (Test System: AMES SALMONELLA TYPHIMURIUM, Strain/Indicator: TA102, Metabolic Activation: RAT, LIVER, S-9, AROCLOR, Method: PREINCUBATION): inactive; negative
- mutagenic call (Test System: E. COLI, Strain/Indicator: WP2 UVRA (PKM101), Metabolic Activation: NONE, Method: PREINCUBATION): active; positive
- mutagenic call (Test System: E. COLI, Strain/Indicator: WP2 UVRA (PKM101), Metabolic Activation: RAT, LIVER, S-9, KANECHLOR 1254, Method: PREINCUBATION): active; positive
- mutagenic call (Test System: UDS RAT HEPATOCYTES, Strain/Indicator: THY INCORP, Metabolic Activation: NONE): active; positive

SMILES: Cc1c(C)c2c(nc(N)n2C)c2nccnc12
- mutagenic call [2]: active; positive

SMILES: COc1cc(C)cc2c(O)c(-c3c(C)cc4c(O)ccc(O)c4c3OC)cc(O)c12
- mutagenic call [7]: inactive; negative
- mutagenic call (Test System: AMES SALMONELLA TYPHIMURIUM, Strain/Indicator: TA98, Metabolic Activation: RAT, LIVER, S-9, AROCLOR 1254, Method: PREINCUBATION): inactive; negative
- mutagenic call [6]: inactive; negative
- mutagenic call (Test System: AMES SALMONELLA TYPHIMURIUM, Strain/Indicator: TA100, Metabolic Activation: RAT, LIVER, S-9, AROCLOR 1254, Method: PREINCUBATION): inactive; negative

SMILES: IC(I)I
- mutagenic call (End Point: IN VITRO CHROMOSOMAL ABERRATIONS, Test System: SYRIAN HAMSTER EMBRYO (SHE) CELLS, Metabolic Activation: NONE): inactive; negative; toxicity at 160 and 240 um
- mutagenic call (End Point: IN VITRO CHROMOSOMAL ABERRATIONS, Test System: SYRIAN HAMSTER EMBRYO (SHE) CELLS, Metabolic Activation: RAT, LIVER, S-9): inactive; negative
- mutagenic call (End Point: In vitro chromosomal aberrations, Test System: D824 human dental pulp cells, Metabolic Activation: None): active; positive (structural changes and ploidy)

SMILES: [O]c1nccc(=O)[nH]1
- mutagenic call [3]: active; positive

SMILES: Cc1ccc2nc3c4c(ccc3c(C)c2c1)[C@H](O)[C@@H](O)C=C4
- mutagenic call [4]: active; positive

SMILES: N#CCc1ccccc1[N+](=O)[O-]
- mutagenic call (Test System: AMES SALMONELLA TYPHIMURIUM, Strain/Indicator: TA97, Metabolic Activation: HAMSTER, LIVER, S-9, AROCLOR 1254 (10%), Method: PREINCUBATION): inactive; negative
- mutagenic call (Test System: AMES SALMONELLA TYPHIMURIUM, Strain/Indicator: TA97, Metabolic Activation: NONE, Method: PREINCUBATION): active; positive
- mutagenic call (Test System: AMES SALMONELLA TYPHIMURIUM, Strain/Indicator: TA97, Metabolic Activation: RAT, LIVER, S-9, AROCLOR 1254 (10%), Method: PREINCUBATION): inactive; negative
- mutagenic call (Test System: AMES SALMONELLA TYPHIMURIUM, Strain/Indicator: TA98, Metabolic Activation: HAMSTER, LIVER, S-9, AROCLOR 1254 (10%), Method: PREINCUBATION): inactive; negative
- mutagenic call [7]: active; positive
- mutagenic call (Test System: AMES SALMONELLA TYPHIMURIUM, Strain/Indicator: TA98, Metabolic Activation: RAT, LIVER, S-9, AROCLOR 1254 (10%), Method: PREINCUBATION): inactive; negative
- mutagenic call (Test System: AMES SALMONELLA TYPHIMURIUM, Strain/Indicator: TA100, Metabolic Activation: HAMSTER, LIVER, S-9, AROCLOR 1254 (10%), Method: PREINCUBATION): active; positive
- mutagenic call [6]: active; positive
- mutagenic call (Test System: AMES SALMONELLA TYPHIMURIUM, Strain/Indicator: TA100, Metabolic Activation: RAT, LIVER, S-9, AROCLOR 1254 (10%), Method: PREINCUBATION): active; positive
- mutagenic call (Test System: AMES SALMONELLA TYPHIMURIUM, Strain/Indicator: TA1535, Metabolic Activation: HAMSTER, LIVER, S-9, AROCLOR 1254 (10%), Method: PREINCUBATION): active; positive
- mutagenic call (Test System: AMES SALMONELLA TYPHIMURIUM, Strain/Indicator: TA1535, Metabolic Activation: NONE, Method: PREINCUBATION): inactive; negative
- mutagenic call (Test System: AMES SALMONELLA TYPHIMURIUM, Strain/Indicator: TA1535, Metabolic Activation: RAT, LIVER, S-9, AROCLOR 1254 (10%), Method: PREINCUBATION): active; positive

SMILES: c1cnc2c3c(ccc2c1)C1OC1CC3 (configuration not stated)
- mutagenic call [3]: inactive; negative

SMILES: C(CC1CO1)C1CO1 (configuration not stated)
- mutagenic call [3]: active; positive
- mutagenic call [5]: active; positive
